# Experimental data taken from patent publication US20230085307A1, “PYRIDAZINONE COMPOUND AND HERBICIDE” (NISSAN CHEMICAL CORPORATION, priority 2019, published 2023).
# System: rice flat sedge
# Experiment: Test Example 3: herbicidal effect by foliage application, Wagner pot (Table 18, symbol E)
# Format: in vivo, rice flat sedge (Cyperus iria)
# Conditions: 80 g/ha
# Description: (§1) [Test Example 3] Herbicidal Effect Test by Foliage Application After alluvial soil was placed into 1/10000 are of Wagner pot, water was poured and mixed to form a submerged condition having a water depth of 0.1 cm to 0.5 cm. Seeds of barnyard grass, Chinese sprangletop, rice flat sedge, and rice were sowed and the pot was placed in a greenhouse at 25° C. to 30° C. for growth of the plants. After 14-day growth of the plants, the emulsion agent of the compound of the present invention prepared according to Formulation Example 2 was diluted with water so as to achieve a predetermined herbicide amount, and the diluted emulsion agent was uniformly applied to a foliage part with a small-sized spray. Three weeks after the herbicide application, the effect of the herbicide on each plant was evaluated according to the criteria of Test Example 1.
row,SMILES,"herbicidal effect on E (rice flat sedge), rating 0-5"
1,CCCC(=O)Oc1c(OC)nn(C)c(=O)c1-c1c(-c2ccc(Oc3ccccc3)cc2)sc2ccccc12 [1-165],0 (Herbicidal rate of 5% or less (almost no effect))
2,CCCC(=O)Oc1c(OC)nn(C)c(=O)c1-c1c(-c2ccsc2)sc2ccccc12 [1-193],0 (Herbicidal rate of 5% or less (almost no effect))

# Same assay, conditions: 320 g/ha
row,SMILES,herbicidal effect on rice flat sedge (E)
1,Cc1nn(C)c(=O)c(-c2c(-c3ccc(OC(F)F)cc3)sc3c(Cl)cccc23)c1O [4-074],3 (Herbicidal rate of 40% or more and less than 70%)
2,CCCC(=O)Oc1c(C)nn(C)c(=O)c1-c1c(-c2ccc(C(F)(F)F)cc2)sc2cc(Cl)c(Cl)cc12 [5-048],0 (Herbicidal rate of 5% or less (almost no effect))
3,COc1cc2sc(-c3ccc(C#N)cc3)c(-c3c(O)c(C)nn(C)c3=O)c2cc1Cl [5-074],3 (Herbicidal rate of 40% or more and less than 70%)
4,CCCC(=O)Oc1c(C)nn(C)c(=O)c1-c1c(-c2ccccc2O)sc2c(Cl)cccc12 [4-080],4 (Herbicidal rate of 70% or more and less than 90%)

# Same assay, conditions: amount of applied herbicide 320 g/ha
row,SMILES,herbicidal effect on E: rice flat sedge
1,Cc1nn(C)c(=O)c(-c2c(-c3ccc(C(F)(F)F)cc3Cl)sc3ccc(F)cc23)c1O [2-356],4 (Herbicidal rate of 70% or more and less than 90%)
2,Cc1nn(C)c(=O)c(-c2c(-c3cnc(Cl)s3)sc3ccc(F)cc23)c1O [2-394],5 (Herbicidal rate of 90% or more (almost completely withered))
3,COc1c(C)nn(C)c(=O)c1-c1c(-c2ccnc(F)c2)sc2ccc(F)cc12 [2-427],2 (Herbicidal rate of 20% or more and less than 40%)

# System: Chinese sprangletop
# Experiment: Test Example 3: herbicidal effect by foliage application, Wagner pot (Table 18, symbol D)
# Format: in vivo, chinese sprangletop (Leptochloa chinensis)
# Conditions: 80 g/ha
# Description: as §1
row,SMILES,"herbicidal effect on D (Chinese sprangletop), rating 0-5"
1,CCCC(=O)Oc1c(OC)nn(C)c(=O)c1-c1c(-c2ccc(Oc3ccccc3)cc2)sc2ccccc12 [1-165],0 (Herbicidal rate of 5% or less (almost no effect))
2,CCCC(=O)Oc1c(OC)nn(C)c(=O)c1-c1c(-c2ccsc2)sc2ccccc12 [1-193],1 (Herbicidal rate of 5% or more and less than 20%)

# Same assay, conditions: 320 g/ha
row,SMILES,herbicidal effect on Chinese sprangletop (D)
1,Cc1nn(C)c(=O)c(-c2c(-c3ccc(OC(F)F)cc3)sc3c(Cl)cccc23)c1O [4-074],0 (Herbicidal rate of 5% or less (almost no effect))
2,CCCC(=O)Oc1c(C)nn(C)c(=O)c1-c1c(-c2ccc(C(F)(F)F)cc2)sc2cc(Cl)c(Cl)cc12 [5-048],4 (Herbicidal rate of 70% or more and less than 90%)
3,COc1cc2sc(-c3ccc(C#N)cc3)c(-c3c(O)c(C)nn(C)c3=O)c2cc1Cl [5-074],5 (Herbicidal rate of 90% or more (almost completely withered))
4,CCCC(=O)Oc1c(C)nn(C)c(=O)c1-c1c(-c2ccccc2O)sc2c(Cl)cccc12 [4-080],3 (Herbicidal rate of 40% or more and less than 70%)

# Same assay, conditions: amount of applied herbicide 320 g/ha
row,SMILES,herbicidal effect on D: Chinese sprangletop
1,Cc1nn(C)c(=O)c(-c2c(-c3ccc(C(F)(F)F)cc3Cl)sc3ccc(F)cc23)c1O [2-356],4 (Herbicidal rate of 70% or more and less than 90%)
2,Cc1nn(C)c(=O)c(-c2c(-c3cnc(Cl)s3)sc3ccc(F)cc23)c1O [2-394],3 (Herbicidal rate of 40% or more and less than 70%)
3,COc1c(C)nn(C)c(=O)c1-c1c(-c2ccnc(F)c2)sc2ccc(F)cc12 [2-427],0 (Herbicidal rate of 5% or less (almost no effect))

# System: barnyard grass
# Experiment: Test Example 3: herbicidal effect by foliage application, Wagner pot (Table 18, symbol H)
# Format: in vivo, barnyard grass (Echinochloa crus-galli)
# Conditions: 80 g/ha
# Description: as §1
row,SMILES,"herbicidal effect on H (barnyard grass), rating 0-5"
1,CCCC(=O)Oc1c(OC)nn(C)c(=O)c1-c1c(-c2ccc(Oc3ccccc3)cc2)sc2ccccc12 [1-165],2 (Herbicidal rate of 20% or more and less than 40%)
2,CCCC(=O)Oc1c(OC)nn(C)c(=O)c1-c1c(-c2ccsc2)sc2ccccc12 [1-193],2 (Herbicidal rate of 20% or more and less than 40%)

# Same assay, conditions: 320 g/ha
row,SMILES,herbicidal effect on barnyard grass (H)
1,Cc1nn(C)c(=O)c(-c2c(-c3ccc(OC(F)F)cc3)sc3c(Cl)cccc23)c1O [4-074],4 (Herbicidal rate of 70% or more and less than 90%)
2,CCCC(=O)Oc1c(C)nn(C)c(=O)c1-c1c(-c2ccc(C(F)(F)F)cc2)sc2cc(Cl)c(Cl)cc12 [5-048],3 (Herbicidal rate of 40% or more and less than 70%)
3,COc1cc2sc(-c3ccc(C#N)cc3)c(-c3c(O)c(C)nn(C)c3=O)c2cc1Cl [5-074],3 (Herbicidal rate of 40% or more and less than 70%)
4,CCCC(=O)Oc1c(C)nn(C)c(=O)c1-c1c(-c2ccccc2O)sc2c(Cl)cccc12 [4-080],2 (Herbicidal rate of 20% or more and less than 40%)

# Same assay, conditions: amount of applied herbicide 320 g/ha
row,SMILES,herbicidal effect on H: barnyard grass
1,Cc1nn(C)c(=O)c(-c2c(-c3ccc(C(F)(F)F)cc3Cl)sc3ccc(F)cc23)c1O [2-356],4 (Herbicidal rate of 70% or more and less than 90%)
2,Cc1nn(C)c(=O)c(-c2c(-c3cnc(Cl)s3)sc3ccc(F)cc23)c1O [2-394],5 (Herbicidal rate of 90% or more (almost completely withered))
3,COc1c(C)nn(C)c(=O)c1-c1c(-c2ccnc(F)c2)sc2ccc(F)cc12 [2-427],3 (Herbicidal rate of 40% or more and less than 70%)
